The text below walks through data of patent US12472193B2, “Methods and compositions for treating and preventing respiratory related diseases and conditions with xylitol-headgroup lipid analogs” (National Jewish Health, priority 2017, dated 2025).

The assay has as its target T1, TLR 7 (Mus musculus, UniProt P58681).
T1 construct: endogenous in cells; host or cells: RAW264.7 (ATCC)
T1 sequence (P58681 27-1050): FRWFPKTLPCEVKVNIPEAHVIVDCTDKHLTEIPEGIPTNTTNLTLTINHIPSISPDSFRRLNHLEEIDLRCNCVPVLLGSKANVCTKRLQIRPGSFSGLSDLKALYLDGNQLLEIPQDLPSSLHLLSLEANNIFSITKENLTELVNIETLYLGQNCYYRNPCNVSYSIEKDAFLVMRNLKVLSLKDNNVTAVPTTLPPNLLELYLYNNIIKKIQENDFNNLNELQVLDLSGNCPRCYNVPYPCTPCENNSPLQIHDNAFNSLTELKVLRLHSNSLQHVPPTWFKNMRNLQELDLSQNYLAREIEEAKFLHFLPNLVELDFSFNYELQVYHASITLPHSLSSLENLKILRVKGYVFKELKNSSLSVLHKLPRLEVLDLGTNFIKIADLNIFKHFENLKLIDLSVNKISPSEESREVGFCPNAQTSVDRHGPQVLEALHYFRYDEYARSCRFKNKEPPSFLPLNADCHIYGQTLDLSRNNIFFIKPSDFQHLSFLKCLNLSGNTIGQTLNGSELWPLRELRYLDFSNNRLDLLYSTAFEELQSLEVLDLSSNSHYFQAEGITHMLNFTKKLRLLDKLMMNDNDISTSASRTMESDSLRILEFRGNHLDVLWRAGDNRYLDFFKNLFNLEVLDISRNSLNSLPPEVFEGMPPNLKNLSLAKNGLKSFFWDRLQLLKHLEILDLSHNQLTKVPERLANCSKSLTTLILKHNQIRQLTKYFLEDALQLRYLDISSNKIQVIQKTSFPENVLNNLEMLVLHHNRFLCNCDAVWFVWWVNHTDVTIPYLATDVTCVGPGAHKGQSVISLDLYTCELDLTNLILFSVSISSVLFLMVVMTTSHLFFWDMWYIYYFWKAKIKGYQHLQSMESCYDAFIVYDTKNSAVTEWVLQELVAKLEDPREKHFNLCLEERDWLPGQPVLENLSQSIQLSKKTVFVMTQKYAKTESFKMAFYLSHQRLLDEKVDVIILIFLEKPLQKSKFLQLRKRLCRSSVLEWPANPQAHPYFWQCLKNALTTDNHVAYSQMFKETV
As to the kind of experiment: polyU-induced TNFα secretion by RAW264.7 cells (TLR 7 antagonism). In kind it is cell-based. The following applies: for antagonism of TLR 7 activation (TNFα release): 20 μg/mL polyU, 20 μg/mL phospholipid, 4 hours; for TLR7 antagonist activity: reduction in cytokine secretion vs activating TLR ligand alone. The method, then: The mouse macrophage cell line, RAW264.7, was obtained from ATCC and maintained in DMEM, supplemented with 10% bovine growth serum and 1× penicillin streptomycin. Cells were maintained at 37° C. with 5% carbon dioxide: 95% air atmosphere within the incubator. Experiments were completed in a 96-well plate where cells were seated at a density of 1×10^5 cells per well, 24 prior to stimulation with TLR agonists and antagonists. Lipids were dried under a stream of nitrogen, hydrated with phosphate-buffered saline (PBS) at 37° C. for one hour, followed by water bath sonication to create liposomes. Each condition for cell stimulation and antagonism was prepared in DMEM in a separate tube and consisted of: control, TLR agonist, TLR agonist+lipid, and lipid alone. 100 μL aliquots of medium+agonists+antagonists were added to each well and incubated at 37° C. for 4 hours. Subsequently, the media were collected, diluted and an enzyme-linked immunosorbent assay (ELISA) was performed to quantify TNFα release by cells.
TLR 7 is an intracellular receptor of the endosomal compartment. TLR 7 was the first innate immune receptor reported druggable with small molecules, however no breakthrough treatments have been discovered with TLR 7 agonists/antagonists yet (T. Y.-H. Wu, “Strategies for Designing Synthetic Immune Agonists,” Immunology, 2016). TLR 7 detects single-stranded RNA (ssRNA) within endosomal compartments. Xylitol lipids were assessed for antagonism of TLR 7 activation in the presence of the synthetic ssRNA analog, polyuridylic acid (polyU). The macrophage cell line, RAW264.7, was used to assess antagonist activity of PX analogs in a TLR 7-dependent manner. Cells were stimulated with 20 μg/mL polyU for 4 hours in the absence or presence of 20 μg/mL phospholipid. After a 4-hour stimulation media were collected and TNFα secretion was quantified by ELISA. […] Saturated, ester-linked phospholipids appear to be ineffective at antagonizing TLR 7 activation where as their unsaturated ester-linked and saturated ether-linked counterparts were effective.

“Also recorded” adds a separate entry of the source.

Take `CCCCCCCCCCCCCCOC[C@H](COP(=O)(O)OCC(O)C(O)C(O)CO)OCCCCCCCCCCCCCC` (mixture of isomers) [14:0 DEPX, sn-1-O-myristyl, sn-2-O-myristyl sn-3 glycerol phosphoxylitol]: the “antagonism of TLR 7 activation (TNFα release)” value (from here on “antagonism of TLR 7 activation”) is “markedly inhibited” and the TLR7 antagonist activity result was “+ (cutoff being greater than a 50% reduction in cytokine secretion compared to activating TLR ligand alone)”.
On to `CCCCCCC=CCCCCCCCC(=O)OCC(COP(=O)(O)OCC(O)C(O)C(O)CO)OC(=O)CCCCCCCC=CCCCCCC` (mixture of isomers) [16:1 DPPX, sn-1-palmitoleoyl, sn-2-palmitoleoyl sn-3 glycerol phosphoxylitol], for which the “antagonism of TLR 7 activation” value was “markedly inhibited” and the TLR7 antagonist activity entry is “+ (cutoff being greater than a 50% reduction in cytokine secretion compared to activating TLR ligand alone)”.
With `CCCCCCCCC=CCCCCCCCCOCC(COP(=O)(O)OCC(O)C(O)C(O)CO)OCCCCCCCCC=CCCCCCCCC` (mixture of isomers) [18:1 DEPX, sn-1-O-octadecenyl, sn-2-O-octadecenyl sn-3 glycerol phosphoxylitol], the “antagonism of TLR 7 activation” value is listed as “markedly inhibited; also recorded: inhibit” and the TLR7 antagonist activity entry is given as “+ (cutoff being greater than a 50% reduction in cytokine secretion compared to activating TLR ligand alone)”.
For `CCCCCC=CCC=CCCCCCCCC(=O)OCC(COP(=O)(O)OCC(O)C(O)C(O)CO)OC(=O)CCCCCCCC=CCC=CCCCCC` (mixture of isomers) [18:2 DLPX, sn-1-linoleoyl, sn-2-linoleoyl sn-3 glycerol phosphoxylitol] the same measures were “markedly inhibited” and “+ (cutoff being greater than a 50% reduction in cytokine secretion compared to activating TLR ligand alone)”.
For `CCCCCCCCC=CCCCCCCCC(=O)OCC(COP(=O)(O)OCC(O)C(O)C(O)CO)OC(=O)CCCCCCCC=CCCCCCCCC` (mixture of isomers) [DOPX, sn-1-oleoyl, sn-2-oleoyl sn-3 glycerol phosphoxylitol] the same measures were “markedly inhibited; also recorded: inhibit” and “+ (cutoff being greater than a 50% reduction in cytokine secretion compared to activating TLR ligand alone)”.
`CCCCCCCC/C=C\CCCCCCCC(=O)O[C@H](COC(=O)CCCCCCCCCCCCCCC)COP(=O)([O-])OCC[N+](C)(C)C` [POPC, 1-palmitoyl-2-oleoyl-sn-glycero-3-phosphocholine, reference compound]: the “antagonism of TLR 7 activation” value is listed as “not affected”.
In the case of `CCCCCCCC/C=C\CCCCCCCC(=O)O[C@H](COC(=O)CCCCCCCCCCCCCCC)COP(=O)(O)OCC(O)CO` (stereo partly shown) [POPG, palmitoyl-oleoyl-phosphatidylglycerol, reference compound], the “antagonism of TLR 7 activation” value is recorded as “markedly inhibited”.
For the compound `CCCCCCCC/C=C\CCCCCCCC(=O)O[C@H](COC(=O)CCCCCCCCCCCCCCC)COP(=O)(O)OCC(O)C(O)C(O)CO` (stereo partly shown) [POPX, sn-1-palmitoyl, sn-2-oleoyly sn-3 glycerol phosphoxylitol], the TLR7 antagonist activity result was “+ (cutoff being greater than a 50% reduction in cytokine secretion compared to activating TLR ligand alone)”.
